# pIC50: −log10 of the molar value.
# Molecular target: T1, recombinant human GR (Homo sapiens, UniProt P04150)
# T1 construct: purchased Panvera/Invitrogen P2812 (kit P2893)
# T1 sequence (P04150 1-777): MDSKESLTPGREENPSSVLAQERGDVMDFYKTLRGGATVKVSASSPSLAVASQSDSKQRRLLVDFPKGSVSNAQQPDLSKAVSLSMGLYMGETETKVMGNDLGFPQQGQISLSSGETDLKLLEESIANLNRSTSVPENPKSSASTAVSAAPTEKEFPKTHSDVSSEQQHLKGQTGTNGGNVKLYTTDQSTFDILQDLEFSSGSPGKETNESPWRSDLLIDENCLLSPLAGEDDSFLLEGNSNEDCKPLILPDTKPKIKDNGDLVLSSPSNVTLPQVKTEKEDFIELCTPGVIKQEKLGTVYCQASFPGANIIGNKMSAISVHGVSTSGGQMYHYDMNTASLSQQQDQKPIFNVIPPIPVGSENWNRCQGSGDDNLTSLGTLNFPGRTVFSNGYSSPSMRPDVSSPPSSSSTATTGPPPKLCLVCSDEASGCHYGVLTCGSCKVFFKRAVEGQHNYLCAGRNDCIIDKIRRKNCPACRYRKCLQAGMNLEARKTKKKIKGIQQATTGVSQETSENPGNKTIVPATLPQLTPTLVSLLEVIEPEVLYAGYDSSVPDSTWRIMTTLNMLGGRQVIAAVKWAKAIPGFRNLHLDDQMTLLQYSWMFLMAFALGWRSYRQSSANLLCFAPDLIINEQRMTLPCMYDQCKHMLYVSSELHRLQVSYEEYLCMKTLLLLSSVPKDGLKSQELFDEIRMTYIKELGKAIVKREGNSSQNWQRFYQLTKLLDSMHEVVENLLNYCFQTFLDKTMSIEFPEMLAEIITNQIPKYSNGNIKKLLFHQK
# Assay: Human Glucocorticoid Receptor (GR) Assay (fluorescence polarization, Panvera/Invitrogen kit)
# Details: GS Red tracer, 2 hours at room temperature, 100% control 10 μM Dexamethasone, read-out: Inhibition of GR binding, IC50
# Method: Human Glucocorticoid Receptor (GR) Assay The assay is based on a commercial kit from Panvera/Invitrogen (Part number P2893). The assay technology is fluorescence polarization. The kit utilises recombinant human GR (Panvera, Part number P2812), a Fluoromone™ labelled tracer (GS Red, Panvera, Part number P2894) and a Stabilizing Peptide 10× (Panvera, Part number P2815). The GR and Stabilizing Peptide reagents are stored at −70° C. while the GS Red is stored at −20° C. Also included in the kit are 1M DTT (Panvera, Part number P2325, stored at −20° C.) and GR Screening buffer 10× (Panvera, Part number P2814, stored at −70° C. initially but once thawed stored at room temperature). Avoid repeated freeze/thaws for all reagents. The GR Screening buffer 10× comprises 100 mM potassium phosphate, 200 mM sodium molybdate, 1 mM EDTA and 20% DMSO. Test compounds (1 μL) and controls (1 μL) in 100% DMSO were added to black polystyrene 384-well plates (Greiner low volume black flat-bottom, part number 784076). 0% control was 100% DMSO and 100% control was 10 μM Dexamethasone. Background solution (8 μL; assay buffer 10×, Stabilizing Peptide, DTT and ice cold MQ water) was added to the background wells. GS Red solution (7 μL; assay buffer 10×, Stabilizing Peptide, DTT, GS Red and ice cold water) was added to all wells except background wells. GR solution (7 μL; assay buffer 10×, Stabilizing Peptide, DTT, GR and ice cold water) was added to all wells. The plate was sealed and incubated in a dark at room temperature for 2 hours. The plate was read in an Analyst plate reader (LJL Biosystems/Molecular Devices Corporation) or other similar plate reader capable of recording fluorescence polarization (excitation wavelength 530 nm, emission wavelength 590 nm and a dichroic mirror at 561 nm).
row,SMILES,pIC50
1,"C[C@]12C=CC(=O)C=C1[C@@H](F)C[C@H]1[C@@H]3C[C@H]4OC(c5ccc(Cl)cc5)O[C@@]4(C(=O)SCC#N)[C@@]3(C)C[C@H](O)[C@@]12F (stereo partly drawn) [Example 28, S-(Cyanomethyl)(4aS,4bR,5S,6aS,6bS,9aR,10aS,10bS,12S)-8-(4-chlorophenyl)-4b,12-difluoro-5-hydroxy-4a,6a-dimethyl-2-oxo-2,4a,4b,5,6,6a,9a,10,10a,10b,11,12-dodecahydro-6bH-naphtho[2′,1′,4,5]indeno[1,2-d][1,3]dioxole-6b-carbothioate]",8.89
2,"C[C@]12C=CC(=O)C=C1[C@@H](F)C[C@H]1[C@@H]3C[C@H]4OC(c5ccc(Cl)cc5)O[C@@]4(C(=O)SCF)[C@@]3(C)C[C@H](O)[C@@]12F (stereo partly drawn) [Example 29, S-(Fluoromethyl)(4aS,4bR,5S,6aS,6bS,9aR,10aS,10bS,12S)-8-(4-chlorophenyl)-4b,12-difluoro-5-hydroxy-4a,6a-dimethyl-2-oxo-2,4a,4b,5,6,6a,9a,10,10a,10b,11,12-dodecahydro-6bH-naphtho[2′,1′:4,5]indeno[1,2-d][1,3]dioxole-6b-carbothioate]",8.89
3,"Cc1ccc(C2O[C@@H]3C[C@H]4[C@@H]5CCC6=CC(=O)C=C[C@]6(C)[C@H]5[C@@H](O)C[C@]4(C)[C@]3(C(=O)SCC#N)O2)c(C)c1 (stereo partly drawn) [Example 36, S-(Cyanomethyl)(4aR,4bS,5S,6aS,6bS,9aR,10aS,10bS)-8-(2,4-dimethylphenyl)-5-hydroxy-4a,6a-dimethyl-2-oxo-2,4a,4b,5,6,6a,9a,10,10a,10,11,12-dodecahydro-6bH-naphtho[2′,1′:4,5]indeno[1,2-d][1,3]dioxole-6b-carbothioate]",8.57
4,"COc1ccc(C2O[C@@H]3C[C@H]4[C@@H]5CCC6=CC(=O)C=C[C@]6(C)[C@H]5[C@@H](O)C[C@]4(C)[C@]3(C(=O)SCC#N)O2)c(F)c1 (stereo partly drawn) [Example 37, S-(Cyanomethyl)(4aR,4bS,5S,6aS,6bS,9aR,10aS,10bS)-8-(2-fluoro-4-methoxyphenyl)-5-hydroxy-4a,6a-dimethyl-2-oxo-2,4a,4b,5,6,6a,9a,10,10a,10b,11,12-dodecahydro-6bH-naphtho[2′,1′:4,5]indeno[1,2-d][1,3]dioxole-6b-carbothioate]",8.85
5,"COc1ccc([C@@H]2O[C@@H]3C[C@H]4[C@@H]5CCC6=CC(=O)C=C[C@]6(C)[C@H]5[C@@H](O)C[C@]4(C)[C@]3(C(=O)SC)O2)c(F)c1 [Example 38 (8R), S-Methyl (4aR,4bS,5S,6aS,6bS,8R,9aR,10aS,10bS)-8-(2-fluoro-4-methoxyphenyl)-5-hydroxy-4a,6a-dimethyl-2-oxo-2,4a,4b,5,6,6a,9a,10,10a,10b,11,12-dodecahydro-6bH-naphtho[2′,1′:4,5]indeno[1,2-d][1,3]dioxole-6b-carbothioate]",8.66
6,"C[C@]12C=CC(=O)C=C1CC[C@@H]1[C@@H]2[C@@H](O)C[C@@]2(C)[C@H]1C[C@H]1OC(c3ccc(C(F)(F)F)cc3)O[C@]12C(=O)SCC#N (stereo partly drawn) [Example 39, S-(Cyanomethyl)(4aR,4bS,5S,6aS,6bS,9aR,10aS,10bS)-5-hydroxy-4a,6a-dimethyl-2-oxo-8-[4-(trifluoromethyl)phenyl]-2,4a,4b,5,6,6a,9a,10,10a,10,11,12-dodecahydro-6bH-naphtho[2′,1′:4,5]indeno[1,2-d][1,3]dioxole-6b-carbothioate]",8.55
7,"C[C@]12C=CC(=O)C=C1CC[C@@H]1[C@@H]2[C@@H](O)C[C@@]2(C)[C@H]1C[C@H]1OC(c3ccc(C(F)(F)F)cc3)O[C@]12C(=O)SCF (stereo partly drawn) [Example 40, S-(Fluoromethyl)(4aR,4bS,5S,6aS,6bS,9aR,10aS,10bS)-5-hydroxy-4a,6a-dimethyl-2-oxo-8-[4-(trifluoromethyl)phenyl]-2,4a,4b,5,6,6a,9a,10,10a,10,11,12-dodecahydro-6bH-naphtho[2′,1′:4,5]indeno[1,2-d][1,3]dioxole-6b-carbothioate]",8.77
8,"CSC(=O)[C@@]12OC(c3ccc(C(F)(F)F)cc3)O[C@@H]1C[C@H]1[C@@H]3CCC4=CC(=O)C=C[C@]4(C)[C@H]3[C@@H](O)C[C@@]12C (stereo partly drawn) [Example 41, S-Methyl (4aR,4bS,5S,6aS,6bS,9aR,10aS,10bS)-5-hydroxy-4a,6a-dimethyl-2-oxo-8-[4-(trifluoromethyl)phenyl]-2,4a,4b,5,6,6a,9a,10,10a,10b,11,12-dodecahydro-6bH-naphtho[2′,1′:4,5]indeno[1,2-d][1,3]dioxole-6b-carbothioate]",8.66

# Stronger by pIC50, values ahead:
row,pIC50,SMILES
1,8.96,"C[C@]12C=CC(=O)C=C1[C@@H](F)C[C@H]1[C@@H]3C[C@H]4OC(c5ccccc5)O[C@@]4(C(=O)SCF)[C@@]3(C)C[C@H](O)[C@@]12F (stereo partly drawn) [Example 30, S-(Fluoromethyl)(4aS,4bR,5S,6aS,6bS,9aR,10aS,10bS,12S)-4b,12-difluoro-5-hydroxy-4a,6a-dimethyl-2-oxo-8-phenyl-2,4a,4b,5,6,6a,9a,10,10a,10b,11,12-dodecahydro-6bH-naphtho[2′,1′:4,5]indeno[1,2-d][1,3]dioxole-6b-carbothioate]"
2,8.96,"C[C@]12C=CC(=O)C=C1CC[C@@H]1[C@@H]2[C@@H](O)C[C@@]2(C)[C@H]1C[C@H]1O[C@@H](c3cccs3)O[C@]12C(=O)SCF [Example 35, S-(Fluoromethyl)(4aR,4bS,5S,6aS,6bS,8R,9aR,10aS,10bS)-5-hydroxy-4a,6a-dimethyl-2-oxo-8-thiophen-2-yl-2,4a,4b,5,6,6a,9a,10,10a,10,11,12-dodecahydro-6bH-naphtho[2′,1′:4,5]indeno[1,2-d][1,3]dioxole-6b-carbothioate]"
3,9.00,"C[C@]12C=CC(=O)C=C1[C@@H](F)C[C@H]1[C@@H]3C[C@H]4OC(c5cccc6c5OCC6)O[C@@]4(C(=O)SCF)[C@@]3(C)C[C@H](O)[C@@]12F (stereo partly drawn) [Example 32, S-(Fluoromethyl)(4aS,4bR,5S,6aS,6bS,9aR,10aS,10bS,12S)-8-(2,3-dihydro-1-benzofuran-7-yl)-4b,12-difluoro-5-hydroxy-4a,6a-dimethyl-2-oxo-2,4a,4b,5,6,6a,9a,10,10a,10b,11,12-dodecahydro-6bH-naphtho[2′,1′:4,5]indeno[1,2-d][1,3]dioxole-6b-carbothioate]"
4,9.00,"Cc1noc(C)c1C1O[C@@H]2C[C@H]3[C@@H]4C[C@H](F)C5=CC(=O)C=C[C@]5(C)[C@@]4(F)[C@@H](O)C[C@]3(C)[C@]2(C(=O)SCF)O1 (stereo partly drawn) [Example 33, S-(Fluoromethyl)(4aS,4bR,5S,6aS,6bS,9aR,10aS,10bS,12S)-8-(3,5-dimethylisoxazol-4-yl)-4b,12-difluoro-5-hydroxy-4a,6a-dimethyl-2-oxo-2,4a,4b,5,6,6a,9a,10,10a,10b,11,12-dodecahydro-6bH-naphtho[2′,1′:4,5]indeno[1,2-d][1,3]dioxole-6b-carbothioate]"
5,9.00,"C[C@]12C=CC(=O)C=C1CC[C@@H]1[C@@H]2[C@@H](O)C[C@@]2(C)[C@H]1C[C@H]1OC(c3ccco3)O[C@]12C(=O)SCF (stereo partly drawn) [Example 34, S-(Fluoromethyl)(4aR,4bS,5S,6aS,6bS,9aR,10aS,10bS)-8-furan-2-yl-5-hydroxy-4a,6a-dimethyl-2-oxo-2,4a,4b,5,6,6a,9a,10,10a,10b,11,12-dodecahydro-6bH-naphtho[2′,1′:4,5]indeno[1,2-d][1,3]dioxole-6b-carbothioate]"
6,9.01,"C[C@]12C=CC(=O)C=C1[C@@H](F)C[C@H]1[C@@H]3C[C@H]4O[C@@H](c5ccccc5)O[C@@]4(C(=O)SCC#N)[C@@]3(C)C[C@H](O)[C@@]12F [Example 31, S-(Cyanomethyl)(4aS,4bR,5S,6aS,6bS,9aR,10aS,10bS,12S)-4b,12-difluoro-5-hydroxy-4a,6a-dimethyl-2-oxo-8-phenyl-2,4a,4b,5,6,6a,9a,10,10a,10b,11,12-dodecahydro-6bH-naphtho[2′,1′:4,5]indeno[1,2-d][1,3]dioxole-6b-carbothioate]"
